Source: patent US6337338B1, “Heteroaryl-aryl ureas as IGF-1 receptor antagonists” (Telik, Inc., priority 1998, dated 2002)

Test system: MCF-7 cells
Assay: Cell growth inhibition study by protein assay, MCF-7
Assay type: cell-based
Settings: 1 nM IGF-1, 48 h, FIG. 1b
Description: 100,000 cells (MCF-7) were plated into 24 well dishes, and grown in complete Dulbecco's modified Eagle's medium (DMEM) supplemented with 10% fetal calf serum (FCS) for 24 h. Cells were washed twice in serum-free DMEM, then 0.5 ml DMEM supplemented with 0^5% FCS […] was added with or without a heteroaryl-aryl compound, compound 5, and in the presence or absence of 1 nM hormone (IGF-1 or insulin, respectively). After 48 h at 37° C., cells were washed twice with phosphate buffered saline (PBS) then solubilized in 0.03% sodium dodecyl sulfate (SDS). Protein was determined using the BCA Protein Assay reagent from Pierce Chemical with BSA serving as a standard.

For `COc1c(Cl)cccc1NC(=O)Nc1cc(C)nc2ccccc12` [Compound 5, N-(2-methoxy-3-chlorophenyl)-N′-(2-methyl-4-quinolinyl) urea], the “IGF-1 stimulated cell growth (protein assay)” value was “inhibit IGF-1 stimulated cell growth”.

Test system: MCF-7 or MCF-10 cells
Assay: Cell proliferation assay (CellTiter 96, MTS)
Assay type: cell-based
Settings: 1 nM IGF-1, 48 h, FIG. 2
Description: 5000 cells (MCF-7 or MCF-10) were plated into 96 well plates and grown for 24 h as in Example 4, above. Cells were washed in serum free DMEM, then 100 μl media and 1 nM IGF-1 were added to wells in the presence of or absence of compound 5 (see Example 2) and hormone. After 48 h, viability was determined by CellTiter 96™ (Promega). This kit is a chromogenic bioassay procedure for the measurement of cell proliferation. Briefly, 20 μl (3-[4,5,dimethylthiazol-2-yl]-5-[3-carboxymethoxyphenyl]-2-[4-sulfophenyl]-2H-tetrazolium, inner salt (MTS) was added to each well and incubation was continued for 3-4 h. Viable cells reduced the MTS to formazan, which was then measured at 492 nm using an ELISA plate reader. Cell proliferation was calculated based on the increase in the number of viable cells.

In the case of `COc1c(Cl)cccc1NC(=O)Nc1cc(C)nc2ccccc12` [Compound 5, N-(2-methoxy-3-chlorophenyl)-N′-(2-methyl-4-quinolinyl) urea], the “IGF-1R stimulated cell proliferation” value is reported as “decrease in IGF-1R stimulated cell proliferation”.

Test system: MCF-10 cells
Assay: Cell growth inhibition study by protein assay, MCF-10
Assay type: cell-based
Settings: 1 nM IGF-I, FIG. 1a
Description: MFC-10 cells were plated as above in DMEM/Ham's F12 medium (DMEM/F12) supplemented with 5% horse serum, 8 ng/ml epidermal growth factor (EGF), 0.5 μg/ml hydrocortisone, 0.1 μg/mL cholera toxin. After 24 hr, cells were washed twice in serum free DMEM/F12, then 0.5 ml DMEM/12 with 0.5% horse serum added with or without test compound, and in the […] of 1 nM IGF-I.

In the case of `COc1c(Cl)cccc1NC(=O)Nc1cc(C)nc2ccccc12` [Compound 5, N-(2-methoxy-3-chlorophenyl)-N′-(2-methyl-4-quinolinyl) urea], the “IGF-1 stimulated cell growth (protein assay)” value is reported as “inhibit IGF-1 stimulated cell growth”.

Molecular target: T1, IGF-1R-cytoplasmic kinase domain (IGF-1R-CKD; amino acids 959-1367 of IGF-1R) (Homo sapiens, UniProt P08069)
T1 construct: amino acids 959-1367 of IGF-1R
Assay: IGF-1R substrate assay (KS2 phosphorylation)
Assay type: biochemical
Settings: compounds 50 μM; 50 μM ATP; KS2-biotin substrate
Description: Nunc Maxisorp plates were coated with 100 μL 10 μg/mL-streptavidin at […] The plates were washed in 20 mM Tris pH7.6, 150 mM NaCl, 0.05% Tween 20, 0.8 mM Na3VO4, and 0.04% Biocide between all steps of the assay. The plates were blocked in 200 μL 50 mM Hepes/150 mM NaCl/0.1% Triton-X 100 overnight at 4° C. or for 2 hr at 25-37° C.
Aliquots of the IGF-1R-cytoplasmic kinase domain (IGF-1R-CKD; amino acids 959-1367 of IGF-1R) were purified and stored at −80° C. until use. KS2 (GPWLEEEEEAYGWMDF; SEQ ID NO:1), gastrin (1-17) that is a substrate for many tyrosine kinases including the insulin receptor, was synthesized as a biotin conjugate (KS2-biotin) (Baldwin et al., Nature, 301:435-37 (1983)). The assay mixture consisted of 0.2 μg/mL IGF-1R-CKD (concentration adjusted for optimal response), 300-900 nM KS2-biotin (depending on optimal response), 2 mM […], 5 mM MgCl2 (4-10 mM […] can be substituted), compounds to be tested (50 μM) or their vehicle, and 50 μM ATP. The start of phosphorylation begins with the addition of ATP. Incubation was continued for 10-30 minutes, at which time, the reaction was stopped through the quenching the metals with 20 mM EDTA (final concentration).
The reaction was diluted 1:10 in buffer A (2 mM HEPES pH 7.6, 0.05% Triton X-100, 0.05% bovine serum albumin (BSA)) and 100 μL was captured onto washed, coated and blocked, streptavidin Nunc Maxisorp plate, overnight at 4° C. or 2 hr at 37° C. Anti-phosphotyrosine antibody (12.5 ng/well) conjugated to horseradish peroxidase (RC20:HRPO by Transduction Laboratories ) was diluted into 0.5X Buffer B (25 mM Hepes pH7.6, 75 mM NaCl, 0.025% Tween 20, 2 mM Na3VO4+1% BSA) and incubated for 1.5 to 2 hr at 25° C. The phosphorylated substrate was measured by developing the plate with 100 μL 3′, 3′, 5,5′ tetramethylbenzidine (TMB), and quantified using a plate reader.

T1 sequence (P08069 959-1367): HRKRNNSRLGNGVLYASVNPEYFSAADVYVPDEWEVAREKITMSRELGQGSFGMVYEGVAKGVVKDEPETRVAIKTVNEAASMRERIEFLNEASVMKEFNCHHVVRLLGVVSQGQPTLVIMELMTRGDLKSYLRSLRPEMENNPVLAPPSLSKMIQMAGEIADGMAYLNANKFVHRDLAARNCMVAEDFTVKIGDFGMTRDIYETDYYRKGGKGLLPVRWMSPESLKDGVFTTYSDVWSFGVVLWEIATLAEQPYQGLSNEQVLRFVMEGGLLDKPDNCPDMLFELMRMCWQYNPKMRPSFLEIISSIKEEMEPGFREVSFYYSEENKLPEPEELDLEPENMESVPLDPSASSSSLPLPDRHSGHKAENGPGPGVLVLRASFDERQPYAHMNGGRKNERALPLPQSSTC

First: COc1ccc(Cl)cc1NC(=O)Nc1cc(C)nc2ccccc12 [Compound 7, N-(2-methoxy-5-chlorophenyl)-N′-(2-methyl-4-quinolinyl) urea]
Second: COc1c(Cl)cccc1NC(=O)Nc1cc(C)nc2ccccc12 [Compound 5, N-(2-methoxy-3-chlorophenyl)-N′-(2-methyl-4-quinolinyl) urea]
The inhibition at 50 µM of the first is higher: 23% for the first, 21% for the second.

Going from `CCc1ccc(NC(=O)Nc2cccc3cccnc23)cc1` [Compound 9, N-(4-ethylphenyl)-N′-(8-quinolinyl) urea] to `O=C(Nc1cccc(Cl)c1)Nc1cnc2ccccc2c1` [Compound 10, N-(3-chlorophenyl)-N′-(3-quinolinyl) urea], the inhibition at 50 µM falls from 33% to 26%.

Compared with `Cc1ccc(NC(=O)Nc2cnc3ccccc3c2)cc1Cl` [Compound 8, N-(3-chloro-4-methylphenyl)-N′-(3-quinolinyl) urea], `Cc1ccc(NC(=O)Nc2nccs2)cc1Cl` [Compound 12, N-(3-chloro-4-methylphenyl)-N′-(1,3-thiazol-2-yl) urea] is lower in inhibition at 50 µM: 65% for the first, 21% for the second.

Compared with `COc1ccccc1NC(=O)Nc1nccs1` [Compound 13, N-(2-methoxyphenyl)-N′-(1,3-thiazol-2-yl) urea], `COc1c(Cl)cccc1NC(=O)Nc1nccs1` [Compound 11, N-(2-methoxy-3-chlorophenyl)-N′-(1,3-thiazol-2-yl) urea] is higher in inhibition at 50 µM: 20% for the first, 21% for the second.

`O=C(Nc1cc(Cl)cc(Cl)c1)Nc1nccs1` [Compound 14, N-(3,5-dichlorophenyl)-N′-(1,3-thiazol-2-yl) urea] gave an inhibition at 50 µM of 17%.
